Results from patent US9999222B2, “Herbicidal combination comprising azines” (BASF SE, priority 2014, dated 2018).
Like-named read-outs stand apart in the source and are kept apart here.

Columns and labels:
Experiment in all cases: Greenhouse test, pre-emergence treatment
[1] = test system: LOLMU; format: in vivo, Lolium multiflorum; conditions: Lolium multiflorum, pre-emergence, 480 h, pre-emergence, read-out: observed % activity 20 DAT
How it was run: (§1)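 Seeds were sown in loamy sand with approximately 3.0% humus, then sprayed at once with actives suspended or emulsified in water. Pots were watered, hooded until rooting, held at 10-25° C. or 20-35° C. by species for 2 to 4 weeks, and scored 0 (no damage) to 100 (no emergence/complete destruction).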

[2] = test system: EPHHL; format: in vivo, Euphorbia heterophylla; conditions: Euphorbia heterophylla, pre-emergence, 480 h, pre-emergence, 250 g ai/ha; read-out: observed % activity 20 DAT
How it was run: as §1

[3] = test system: KCHSC; format: in vivo, Kochia scoparia; conditions: Bassia scoparia, 480 h, pre-emergence, read-out: observed % activity 20 DAT
How it was run: as §1

[4] = test system: POLCO; format: in vivo, Polygonum convolvulus; conditions: Fallopia convolvulus, 480 h, pre-emergence, read-out: observed % activity 20 DAT
How it was run: as §1

[5] = test system: BRADC; format: in vivo, Brachiaria decumbens; conditions: Urochloa decumbens, pre-emergence, 480 h, pre-emergence, read-out: observed % activity 20 DAT
How it was run: as §1

[6] = test system: AVEFA; format: in vivo, Avena fatua; conditions: pre-emergence
How it was run: as §1

[7] = test system: ECHCG; format: in vivo, Echinocloa crus-galli; conditions: Echinochloa crus-galli, 480 h, use rate 31.25 g ai/ha, read-out: observed % activity 20 DAT
How it was run: as §1

[8] = test system: ALOMY; format: in vivo, Alopecurus myosuroides; conditions: Alopecurus myosuroides, pre-emergence, 480 h, pre-emergence, read-out: observed % activity 20 DAT
How it was run: as §1

[9] = test system: SIDRH; format: in vivo, Sida rhombifolia; conditions: pre-emergence, 250 g ai/ha
How it was run: as §1

[10] = test system: PHACA; format: in vivo, Phalaris canariensis; conditions: pre-emergence, pre-emergence
How it was run: as §1

[11] = test system: GERPU; format: in vivo, Geranium pusillum; conditions: Geranium pusillum, pre-emergence, 480 h, pre-emergence, read-out: observed % activity 20 DAT
How it was run: as §1

[12] = test system: SETFA; format: in vivo, Setaria faberi
How it was run: as §1

COCC(C)N(C(=O)CCl)c1c(C)csc1C (stereo not drawn) [Dimethenamid, dimethenamid]
pest or weed control at 125 g/ha ([1]; 125 g ai/ha): 85%
pest or weed control at 250 g/ha ([1]; 250 g ai/ha): 98%
pest or weed control at 15.625 g/ha ([1]; use rate 15.625 g ai/ha, 20 DAT): 0%
inhibition at 31.25 g/ha ([1]; use rate 31.25 g ai/ha): 55%
pest or weed control at 62.5 g/ha ([1]; use rate 62.5 g ai/ha, 20 DAT): 85%
inhibition at 62.5 g/ha ([1]; use rate 62.5 g ai/ha): 85%
pest or weed control at 125 g/ha ([1]; use rate 125 g ai/ha, 20 DAT): 95%
inhibition at 125 g/ha ([1]; use rate 125 g ai/ha): 95%
pest or weed control at 250 g/ha [2]: 25%
pest or weed control at 250 g/ha ([3]; 250 g ai/ha): 75%
pest or weed control at 31.25 g/ha ([3]; use rate 31.25 g ai/ha, 20 DAT): 0%
pest or weed control at 62.5 g/ha ([3]; use rate 62.5 g ai/ha, 20 DAT): 0%
pest or weed control at 125 g/ha ([3]; use rate 125 g ai/ha, 20 DAT): 0%
inhibition at 31.25 g/ha ([3]; use rate 31.25 g ai/ha): 0%
inhibition at 62.5 g/ha ([3]; use rate 62.5 g ai/ha): 0%
inhibition at 125 g/ha ([3]; use rate 125 g ai/ha): 0%
pest or weed control at 31.25 g/ha ([4]; use rate 31.25 g ai/ha, 20 DAT): 0%
pest or weed control at 62.5 g/ha ([4]; use rate 62.5 g ai/ha, 20 DAT): 0%
pest or weed control at 125 g/ha ([4]; use rate 125 g ai/ha, 20 DAT): 0%
inhibition at 31.25 g/ha ([4]; use rate 31.25 g ai/ha): 0%
inhibition at 62.5 g/ha ([4]; use rate 62.5 g ai/ha): 0%
inhibition at 125 g/ha ([4]; use rate 125 g ai/ha): 0%
pest or weed control at 125 g/ha ([5]; 125 g ai/ha): 98%
pest or weed control at 250 g/ha ([5]; 250 g ai/ha): 98%
pest or weed control at 500 g/ha ([5]; 500 g ai/ha): 98%
observed % activity 20 DAT ([6]; 55 g ai/ha): 95%
observed % activity 20 DAT ([6]; 250 g ai/ha): 85%
pest or weed control at 31.25 g/ha ([7]; 20 DAT): 98%
inhibition at 31.25 g/ha [7]: 98%
pest or weed control at 125 g/ha ([8]; 125 g ai/ha): 25%
pest or weed control at 500 g/ha ([8]; 500 g ai/ha): 75%
pest or weed control at 62.5 g/ha ([8]; use rate 62.5 g ai/ha, 20 DAT): 0%
inhibition at 62.5 g/ha ([8]; use rate 62.5 g ai/ha): 0%
inhibition at 125 g/ha ([8]; use rate 125 g ai/ha): 35%
pest or weed control at 250 g/ha ([9]; Sida rhombifolia, 480 h, read-out: observed % activity 20 DAT): 70%
observed % activity 20 DAT [9]: 70%
pest or weed control at 125 g/ha ([10]; Phalaris canariensis, 480 h, 125 g ai/ha, read-out: observed % activity 20 DAT): 70%
pest or weed control at 500 g/ha ([10]; Phalaris canariensis, 480 h, 500 g ai/ha, read-out: observed % activity 20 DAT): 98%
pest or weed control at 15.625 g/ha ([10]; Phalaris canariensis, 480 h, use rate 15.625 g ai/ha, 20 DAT, read-out: observed % activity 20 DAT): 10%
pest or weed control at 31.25 g/ha ([10]; Phalaris canariensis, 480 h, use rate 31.25 g ai/ha, 20 DAT, read-out: observed % activity 20 DAT): 55%
inhibition at 31.25 g/ha ([10]; Phalaris canariensis, 480 h, use rate 31.25 g ai/ha, read-out: observed % activity 20 DAT): 55%
pest or weed control at 62.5 g/ha ([10]; Phalaris canariensis, 480 h, use rate 62.5 g ai/ha, 20 DAT, read-out: observed % activity 20 DAT): 65%
pest or weed control at 125 g/ha ([10]; Phalaris canariensis, 480 h, use rate 125 g ai/ha, 20 DAT, read-out: observed % activity 20 DAT): 80%
inhibition at 125 g/ha ([10]; Phalaris canariensis, 480 h, use rate 125 g ai/ha, read-out: observed % activity 20 DAT): 80%
observed % activity 20 DAT ([10]; 125 g ai/ha): 70%
pest or weed control at 250 g/ha ([11]; 250 g ai/ha): 98%
inhibition at 15.625 g/ha ([11]; use rate 15.625 g ai/ha): 50%
inhibition at 31.25 g/ha ([11]; use rate 31.25 g ai/ha): 70%
pest or weed control at 62.5 g/ha ([11]; use rate 62.5 g ai/ha, 20 DAT): 85%
inhibition at 62.5 g/ha ([11]; use rate 62.5 g ai/ha): 85%
pest or weed control at 125 g/ha ([11]; use rate 125 g ai/ha, 20 DAT): 95%
inhibition at 15.625 g/ha ([12]; Setaria faberi, 480 h, use rate 15.625 g ai/ha, read-out: observed % activity 20 DAT): 85%
inhibition at 31.25 g/ha ([12]; Setaria faberi, 480 h, use rate 31.25 g ai/ha, read-out: observed % activity 20 DAT): 98%
observed % activity 20 DAT ([12]; use rate 31.25 g ai/ha, 20 DAT): 98%
